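Where inhibition never reached the appropriate level, the endpoint shown equals the highest concentration tested. Otherwise, values were interpolated linearly from a five-concentration, 48-hour dose response in 96-well plates. TGI is the concentration that stops growth completely.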
Assays:
Assay in all cases: growth of human tumour cells (NCI), 48 h
[1] = tested on: 786-0 renal
[2] = tested on: A549 NSCLC
[3] = tested on: ACHN renal
[4] = tested on: CAKI-1 renal
[5] = tested on: CCRF-CEM leukemia
[6] = tested on: COLO 205 colon
[7] = tested on: HCT-116 colon
[8] = tested on: HOP-92 NSCLC
[9] = tested on: PC-3 prostate
[10] = tested on: RPMI-8226 leukemia
[11] = tested on: SK-OV-3 ovarian
[12] = tested on: SNB-75 CNS
[13] = tested on: SR leukemia
[14] = tested on: SW-620 colon
[15] = tested on: MALME-3M melanoma
[16] = tested on: SF-295 CNS
[17] = tested on: UO-31 renal

Row | SMILES | TGI [1] [µM] | TGI [2] [µM] | TGI [3] [µM] | TGI [4] [µM] | TGI [5] [µM] | TGI [6] [µM] | TGI [7] [µM] | TGI [8] [µM] | TGI [9] [µM] | TGI [10] [µM] | TGI [11] [µM] | TGI [12] [µM] | TGI [13] [µM] | TGI [14] [µM] | TGI [15] [µM] | TGI [16] [µM] | TGI [17] [µM]
1 | C#C[C@]1(O)CC[C@H]2[C@@H]3CCC4=C/C(=N/NC(=O)c5cccc6cc7ccccc7nc56)CC[C@@H]4[C@H]3CC[C@@]21CC | > 100 | > 100 | > 100 | > 100 | > 100 | > 100 | > 100 | > 100 | > 100 | > 100 | > 100 | > 100 | > 100 | > 100 | – | – | –
2 | COC(=O)C1(C(=O)OC)Cc2ccc(C)cc2C2=C1C(=O)c1ccccc1C2=O | 68.9 | > 100 | 31.7 | – | 49.4 | – | 40.3 | 38.7 | 31.3 | – | – | 32.2 | > 100 | 45.8 | 87.5 | 36.1 | –
3 | CC(C)(C)OC(=O)N1CCC2(C)CC(=O)CC=C12 (stereo unspecified) | > 100 | > 100 | > 100 | > 100 | > 100 | > 100 | > 100 | > 100 | > 100 | – | > 100 | > 100 | > 100 | > 100 | > 100 | > 100 | > 100
4 | COc1cccc(N2C(=O)/C(=C\c3ccccc3)SC2c2cc(OC)c(OC)c(OC)c2)c1 (stereo unspecified) | > 100 | > 100 | > 100 | > 100 | > 100 | > 100 | > 100 | > 100 | > 100 | > 100 | > 100 | 57.3 | > 100 | – | – | > 100 | > 100
5 | S=C1CSc2c(ccc3ccccc23)N1 | > 100 | > 100 | > 100 | > 100 | > 100 | > 100 | > 100 | – | > 100 | > 100 | > 100 | > 100 | > 100 | – | > 100 | > 100 | > 100
6 | Nc1[nH]c(=S)c2c(N)n[nH]c2c1C(=O)Nc1ccccc1 | > 100 | > 100 | – | > 100 | – | > 100 | > 100 | > 100 | > 100 | > 100 | > 100 | > 100 | > 100 | > 100 | > 100 | – | > 100
7 | COc1cccc(-c2nc3ccccc3c(=O)[nH]2)c1OC | > 100 | > 100 | > 100 | > 100 | > 100 | > 100 | > 100 | – | > 100 | 49.4 | > 100 | > 100 | > 100 | > 100 | > 100 | > 100 | > 100
8 | CCCCN(Cc1ccccc1)C(=NC#N)N(Cc1ccccc1)Cc1ccccc1 | 56.2 | > 100 | > 72.3 | 58.4 | > 100 | 32.2 | 31.8 | 53.1 | 32.8 | 49.8 | > 96.1 | 71.4 | – | > 100 | 79.4 | > 66 | > 52.4
9 | CC1(C)C/C(=N/O)c2c(nc3ccc4ccccc4c3c2-c2ccc(Cl)cc2)C1 | 15.2 | 51 | 19.4 | 26.3 | 27.6 | 72.8 | 24.1 | 42.2 | > 100 | > 100 | 34.7 | 35.7 | 21 | 77.9 | – | 22.8 | 43.5
10 | O=c1n(-c2ccccc2)c(=O)n2n1C1Cc3ccccc3C12 (stereo unspecified) | > 100 | > 100 | > 100 | > 100 | > 100 | > 100 | > 100 | > 100 | > 100 | > 100 | > 100 | > 100 | > 100 | > 100 | – | > 100 | > 100
11 | Cc1ccc(N(C(=O)Nc2ccc(F)c(Cl)c2)C2=NCC(C)S2)cc1 (stereo unspecified) | > 100 | > 100 | > 100 | > 100 | > 100 | > 100 | > 100 | – | > 100 | – | > 100 | > 100 | > 100 | > 100 | > 100 | > 100 | > 100
12 | CN1CCCOC(c2ccc([N+](=O)[O-])cc2)O1 (stereo unspecified) | > 100 | > 100 | > 100 | > 100 | > 100 | > 100 | > 100 | > 100 | > 100 | – | > 100 | > 100 | > 100 | > 100 | > 100 | > 100 | > 100
